Results on 2 compounds are retold here after patent publication US20240300973A1, “MODULATORS OF FPR1 AND METHODS OF USING THE SAME” (BIOFRONT THERAPEUTICS (BEIJING) CO., LTD., priority 2021, published 2024).

The assay addresses T1, FPR1 (UniProt P21462).
T1 sequence (P21462 1-350): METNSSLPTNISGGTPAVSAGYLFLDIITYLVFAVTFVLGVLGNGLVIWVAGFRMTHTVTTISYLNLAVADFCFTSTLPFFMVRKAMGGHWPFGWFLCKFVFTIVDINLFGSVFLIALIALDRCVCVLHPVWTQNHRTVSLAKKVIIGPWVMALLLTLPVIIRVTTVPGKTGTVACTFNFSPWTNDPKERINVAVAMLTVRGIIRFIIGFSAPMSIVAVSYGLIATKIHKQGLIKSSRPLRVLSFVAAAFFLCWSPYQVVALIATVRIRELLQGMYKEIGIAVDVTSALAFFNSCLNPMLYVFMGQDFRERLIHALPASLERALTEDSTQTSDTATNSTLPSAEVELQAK
As to the kind of experiment: fMLP-FPR1 mediated intracellular calcium signaling assay in FPR1-overexpressing 293T cells. As to conditions: inhibition of fMLP-stimulated intracellular calcium change; hFPR1 or mFPR1 overexpressing 293T cells; 10 min pre-incubation; INDO-1 AM, FACS; read-out: IC50 (nM), potency in calcium signaling assay. It is filed as cell-based, human or mouse. Here is the method:
The effects of the compounds of this disclosure on regulating the FPR1-mediated cell signaling were measured by monitoring the cellular calcium level change, as illustrated by the exemplary examples in Table 2. The dose responses of the illustrated examples are reported categorically using the following ranking criteria: *** (IC50≤100 nM); ** (IC50≥100 to ≤1000 nM); * (IC50≥1000 to ≤10,000 nM); N.D.—not detected.
The coding DNA sequence (CDS) of human FPR1 (NM_001193306) and mouse FPR1 (NM_013521) were cloned and inserted to the lentivirus vector GV367 (Vector information: • http://www.genechem.com.cn/index/supports/tool_search.html?keywords=GV367) under the conduction of pCMV promoter. 293T cells were cultured in H-DMEM supplemented with 10% FBS and 1% penicillin—streptomycin (PS) at 37° C. in 5% CO2 Incubator. […] The overexpression of human or mouse FPR1 in 293 T cells were detected by immunostaining with anti-mouse or human FPR1 antibodies (Biolegend or Antibody Online). […]
Cultured hFPR1 or mFPR1 overexpressing 293T cells were labeled with 1 μM INDO-1 AM calcium sensor dye (eBioscience) for 30 min at 37° C. […] The cytoplasmic calcium levels were then measured by FACS Aria III at 37° C. prior to and after the stimulation of fMLP. […] The change of intracellular calcium was calculated as follow: (basal value-minimum value)/basal value×100%. […]
(Calcium assays in cells follow changes in intracellular calcium, usually with a dye or a luminescent sensor.)

In the case of `Cc1ccc(O)c(-c2onc3c2C(c2ccc(C(F)(F)F)cc2)N(C2CCOCC2)C3=O)c1` (racemic) [Compound 1, rac-3-(2-hydroxy-5-methylphenyl)-5-(tetrahydro-2H-pyran-4-yl)-4-(4-(trifluoromethyl)phenyl)-4,5-dihydro-6H-pyrrolo[3,4-c]isoxazol-6-one], the IC50 – broadly, the point on the concentration scale where inhibition reaches its midpoint – lay within 1000 to 10000 nM.

For the compound `Cc1ccc(O)c(-c2noc3c2C(c2ccc(C(F)(F)F)cc2)N(C2CCOCC2)C3=O)c1` (racemic) [Compound 2, rac-3-(2-hydroxy-5-methylphenyl)-5-(tetrahydro-2H-pyran-4-yl)-4-(4-(trifluoromethyl)phenyl)-4,5-dihydro-6H-pyrrolo[3,4-d]isoxazol-6-one], the IC50 fell in the range of 100 to 1000 nM.
